“And” between values parts separate entries of the source, which are not always exact repeats. Identical values can stand only once.
Legend:
Test in all cases: PDSP GPCR panel primary binding assays at 10 μM
[1] = tested on: cloned human or rodent CNS receptors, channels, and transporters (PDSP panel); settings: 10 μM; for Inhibition 1 / Inhibition 2 / Inhibition 3 / Inhibition 4 / Mean %: primary assay; for Mean %: mean of Inhibition 1-4
Method in brief: (§1)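 Radioligand displacement at cloned human or rodent CNS targets: 46–47 primary binding assays run in quadruplicate at 10 μM. Targets where the compound displaced an average of >50% of radiolabeled standard ligand went to secondary binding in 11-point dose-response, in triplicate; none run for H3, PBR or GABAA.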

[2] = molecular target: T1, cloned human or rodent CNS receptors, channels, and transporters (PDSP panel) (Homo sapiens, UniProt P34969); settings: Receptor 5-HT7A, primary assay, 10 μM
T1 construct: expressed in transfected cells
T1 sequence (P34969 whole entry): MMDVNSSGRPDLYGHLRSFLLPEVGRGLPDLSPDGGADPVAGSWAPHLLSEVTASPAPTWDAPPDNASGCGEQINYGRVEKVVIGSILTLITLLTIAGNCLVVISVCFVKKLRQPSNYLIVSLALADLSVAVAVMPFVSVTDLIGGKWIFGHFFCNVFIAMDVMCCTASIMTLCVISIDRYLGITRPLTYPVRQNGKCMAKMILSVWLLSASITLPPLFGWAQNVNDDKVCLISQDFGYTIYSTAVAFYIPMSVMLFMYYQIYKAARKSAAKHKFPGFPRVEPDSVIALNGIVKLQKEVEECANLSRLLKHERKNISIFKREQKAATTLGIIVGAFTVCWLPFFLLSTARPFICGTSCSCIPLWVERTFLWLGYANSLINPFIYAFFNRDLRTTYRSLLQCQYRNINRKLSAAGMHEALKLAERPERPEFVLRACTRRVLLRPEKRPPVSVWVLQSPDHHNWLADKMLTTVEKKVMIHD
Method in brief: as §1

[3] = molecular target: T2, cloned human or rodent CNS receptors, channels, and transporters (PDSP panel) (Homo sapiens, UniProt P21918); settings: Receptor D5, primary assay, 10 μM
T2 construct: expressed in transfected cells
T2 sequence (P21918 whole entry): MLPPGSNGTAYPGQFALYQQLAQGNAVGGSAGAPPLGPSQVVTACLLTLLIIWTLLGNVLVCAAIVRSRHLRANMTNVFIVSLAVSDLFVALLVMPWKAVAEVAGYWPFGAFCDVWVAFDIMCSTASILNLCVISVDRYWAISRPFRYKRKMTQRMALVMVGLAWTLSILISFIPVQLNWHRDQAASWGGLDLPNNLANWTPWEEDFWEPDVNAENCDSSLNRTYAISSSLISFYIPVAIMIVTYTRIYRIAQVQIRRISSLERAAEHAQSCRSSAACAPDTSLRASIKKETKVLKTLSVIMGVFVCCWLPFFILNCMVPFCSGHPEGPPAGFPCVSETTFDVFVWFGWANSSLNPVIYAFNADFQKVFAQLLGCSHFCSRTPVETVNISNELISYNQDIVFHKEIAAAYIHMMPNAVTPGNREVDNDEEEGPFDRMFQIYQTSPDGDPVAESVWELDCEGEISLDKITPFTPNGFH
Method in brief: as §1

[4] = molecular target: T3, cloned human or rodent CNS receptors, channels, and transporters (PDSP panel) (Homo sapiens, UniProt P35367); settings: Receptor H1, primary assay, 10 μM
T3 construct: expressed in transfected cells
T3 sequence (P35367 whole entry): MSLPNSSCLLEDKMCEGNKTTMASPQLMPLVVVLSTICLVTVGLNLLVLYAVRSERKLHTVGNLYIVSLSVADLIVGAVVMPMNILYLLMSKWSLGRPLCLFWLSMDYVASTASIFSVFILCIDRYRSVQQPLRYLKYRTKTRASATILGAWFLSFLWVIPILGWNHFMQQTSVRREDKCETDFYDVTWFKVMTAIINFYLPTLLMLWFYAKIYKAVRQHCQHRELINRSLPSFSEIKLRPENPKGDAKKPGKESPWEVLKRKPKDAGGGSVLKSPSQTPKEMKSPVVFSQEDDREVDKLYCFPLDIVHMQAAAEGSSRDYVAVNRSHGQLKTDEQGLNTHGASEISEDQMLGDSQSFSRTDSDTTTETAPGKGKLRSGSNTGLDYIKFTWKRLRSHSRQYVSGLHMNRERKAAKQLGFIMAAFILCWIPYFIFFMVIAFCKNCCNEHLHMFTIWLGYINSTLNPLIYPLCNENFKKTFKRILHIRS
Method in brief: as §1

[5] = molecular target: T4, cloned human or rodent CNS receptors, channels, and transporters (PDSP panel) (Homo sapiens, UniProt P28223); settings: Receptor 5-HT2A, primary assay, 10 μM
T4 construct: expressed in transfected cells
T4 sequence (P28223 whole entry): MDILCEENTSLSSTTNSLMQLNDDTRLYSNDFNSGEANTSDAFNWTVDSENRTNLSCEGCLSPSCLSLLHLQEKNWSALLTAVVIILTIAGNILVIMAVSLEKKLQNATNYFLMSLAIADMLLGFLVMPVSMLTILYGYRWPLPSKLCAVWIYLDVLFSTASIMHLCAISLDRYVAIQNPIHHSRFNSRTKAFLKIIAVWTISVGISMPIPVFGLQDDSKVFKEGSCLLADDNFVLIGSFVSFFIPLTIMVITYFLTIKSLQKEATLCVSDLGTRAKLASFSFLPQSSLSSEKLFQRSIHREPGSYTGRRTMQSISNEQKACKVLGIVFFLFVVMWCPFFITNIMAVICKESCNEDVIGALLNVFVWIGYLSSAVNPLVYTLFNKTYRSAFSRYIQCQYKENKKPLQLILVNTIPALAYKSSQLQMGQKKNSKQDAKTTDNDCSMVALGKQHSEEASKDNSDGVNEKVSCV
Method in brief: as §1

[6] = molecular target: T5, cloned human or rodent CNS receptors, channels, and transporters (PDSP panel) (Homo sapiens, UniProt P14416); settings: Receptor D2, primary assay, 10 μM
T5 construct: expressed in transfected cells
T5 sequence (P14416 whole entry): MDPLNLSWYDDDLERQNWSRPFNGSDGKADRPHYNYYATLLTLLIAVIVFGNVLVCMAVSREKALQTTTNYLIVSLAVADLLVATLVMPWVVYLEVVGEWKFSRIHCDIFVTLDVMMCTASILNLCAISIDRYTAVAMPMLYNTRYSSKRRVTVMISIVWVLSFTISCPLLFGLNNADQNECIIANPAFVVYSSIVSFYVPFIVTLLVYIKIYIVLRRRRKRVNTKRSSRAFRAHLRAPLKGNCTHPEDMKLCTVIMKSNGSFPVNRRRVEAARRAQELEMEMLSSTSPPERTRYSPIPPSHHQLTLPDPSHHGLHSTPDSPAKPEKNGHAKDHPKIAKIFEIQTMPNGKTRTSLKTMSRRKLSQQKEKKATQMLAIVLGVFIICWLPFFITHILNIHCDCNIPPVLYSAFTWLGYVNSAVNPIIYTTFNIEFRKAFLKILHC
Method in brief: as §1

[7] = molecular target: T6, cloned human or rodent CNS receptors, channels, and transporters (PDSP panel) (Homo sapiens, UniProt P11229); settings: Receptor M1, primary assay, 10 μM
T6 construct: expressed in transfected cells
T6 sequence (P11229 1-460): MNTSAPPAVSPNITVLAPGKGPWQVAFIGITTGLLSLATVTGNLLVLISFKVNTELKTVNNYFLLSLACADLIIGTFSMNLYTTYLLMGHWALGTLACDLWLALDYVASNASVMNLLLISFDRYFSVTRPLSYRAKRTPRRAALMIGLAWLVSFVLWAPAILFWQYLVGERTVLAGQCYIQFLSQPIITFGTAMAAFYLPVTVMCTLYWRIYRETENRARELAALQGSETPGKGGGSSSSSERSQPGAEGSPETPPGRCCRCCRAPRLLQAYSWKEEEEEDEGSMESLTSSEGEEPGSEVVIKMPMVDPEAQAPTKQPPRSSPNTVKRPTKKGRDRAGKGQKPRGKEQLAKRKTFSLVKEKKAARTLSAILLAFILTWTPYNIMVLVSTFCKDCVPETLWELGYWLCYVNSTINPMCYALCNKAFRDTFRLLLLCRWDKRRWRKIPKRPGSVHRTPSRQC
Method in brief: as §1

[8] = molecular target: T7, cloned human or rodent CNS receptors, channels, and transporters (PDSP panel) (Homo sapiens, UniProt P41145); settings: Receptor KOR, primary assay, 10 μM
T7 construct: expressed in transfected cells
T7 sequence (P41145 whole entry): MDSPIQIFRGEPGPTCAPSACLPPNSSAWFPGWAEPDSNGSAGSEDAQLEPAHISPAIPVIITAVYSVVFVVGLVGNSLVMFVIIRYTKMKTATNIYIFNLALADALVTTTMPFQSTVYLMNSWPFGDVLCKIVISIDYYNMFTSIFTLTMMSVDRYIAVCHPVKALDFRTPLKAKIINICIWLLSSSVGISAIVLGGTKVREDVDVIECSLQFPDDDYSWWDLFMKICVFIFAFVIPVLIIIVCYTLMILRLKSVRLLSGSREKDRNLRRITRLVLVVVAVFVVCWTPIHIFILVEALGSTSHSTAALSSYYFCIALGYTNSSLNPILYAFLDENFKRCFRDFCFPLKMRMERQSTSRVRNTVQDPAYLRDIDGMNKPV
Method in brief: as §1

[9] = molecular target: T8, cloned human or rodent CNS receptors, channels, and transporters (PDSP panel) (Homo sapiens, UniProt P21728); settings: Receptor D1, primary assay, 10 μM
T8 construct: expressed in transfected cells
T8 sequence (P21728 whole entry): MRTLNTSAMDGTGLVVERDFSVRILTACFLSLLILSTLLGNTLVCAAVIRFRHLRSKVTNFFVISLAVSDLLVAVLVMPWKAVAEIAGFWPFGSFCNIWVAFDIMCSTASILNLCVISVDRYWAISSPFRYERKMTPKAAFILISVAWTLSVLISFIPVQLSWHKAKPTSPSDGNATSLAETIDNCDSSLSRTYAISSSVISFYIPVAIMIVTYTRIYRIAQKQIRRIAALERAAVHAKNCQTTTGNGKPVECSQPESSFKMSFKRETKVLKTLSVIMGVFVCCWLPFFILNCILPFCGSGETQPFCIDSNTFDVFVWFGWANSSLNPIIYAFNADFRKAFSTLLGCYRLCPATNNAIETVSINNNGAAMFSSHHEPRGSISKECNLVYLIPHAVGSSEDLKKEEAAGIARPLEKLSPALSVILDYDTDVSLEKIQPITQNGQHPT
Method in brief: as §1

[10] = molecular target: T9, cloned human or rodent CNS receptors, channels, and transporters (PDSP panel) (Rattus norvegicus, UniProt P16257); settings: Receptor PBR; primary assay, 10 μM
T9 construct: expressed in transfected cells
Method in brief: as §1

CCCCNc1ncc2c(-c3ccc(CN4CCN(C)CC4)cc3)cn([C@H]3CC[C@H](O)CC3)c2n1 [UNC2025C, UNC2025]
Affinity for receptors in primary assays ([1]; 46-47 primary binding assays): possessed affinity for the most receptors in primary assays | Inhibition 1 ([1]; Receptor Alpha1A): 55.27% | Inhibition 2 ([1]; Receptor Alpha1A): 34.14% | Inhibition 3 ([1]; Receptor Alpha1A): 47.98% | Inhibition 4 ([1]; Receptor Alpha1A): 43.68% | Mean % ([1]; Receptor Alpha1A): 45.27% | Inhibition 1 ([1]; Receptor Alpha2A): 41.44% | Inhibition 2 ([1]; Receptor Alpha2A): 35.02% | Inhibition 3 ([1]; Receptor Alpha2A): 40.8% | Inhibition 4 ([1]; Receptor Alpha2A): 38.73% | Mean % ([1]; Receptor Alpha2A): 39% | Inhibition 1 ([1]; Receptor Alpha2C): 51.96% | Inhibition 2 ([1]; Receptor Alpha2C): 38.52% | Inhibition 3 ([1]; Receptor Alpha2C): 26.65% | Inhibition 4 ([1]; Receptor Alpha2C): 27.54% | Mean % ([1]; Receptor Alpha2C): 36.17% | Inhibition 1 ([1]; Receptor BZP Rat Brain Site): -0.21% | Inhibition 2 ([1]; Receptor BZP Rat Brain Site): 6.71% | Inhibition 3 ([1]; Receptor BZP Rat Brain Site): 5.47% | Inhibition 4 ([1]; Receptor BZP Rat Brain Site): 13.44% | Mean % ([1]; Receptor BZP Rat Brain Site): 6.35% | Inhibition 1 ([1]; Receptor DOR): -5.58% | Inhibition 2 ([1]; Receptor DOR): -6.66% | Inhibition 3 ([1]; Receptor DOR): -9.56% | Inhibition 4 ([1]; Receptor DOR): 1.65% | Mean % ([1]; Receptor DOR): -5.04% | Inhibition 1 ([1]; Receptor H3): 93.48% | Inhibition 2 ([1]; Receptor H3): 95.52% | Inhibition 3 ([1]; Receptor H3): 93.48% | Inhibition 4 ([1]; Receptor H3): 100.47% | Mean % ([1]; Receptor H3): 95.74% | Inhibition 1 ([1]; Receptor H4): 42.06% | Inhibition 2 ([1]; Receptor H4): 42.3% | Inhibition 3 ([1]; Receptor H4): 60.79% | Inhibition 4 ([1]; Receptor H4): 92.47% | Mean % ([1]; Receptor H4): 59.41% | Inhibition 1 ([1]; Receptor Sigma 1): 4.46% | Inhibition 2 ([1]; Receptor Sigma 1): 61.96% | Inhibition 3 ([1]; Receptor Sigma 1): 35.63% | Inhibition 4 ([1]; Receptor Sigma 1): 46.38% | Mean % ([1]; Receptor Sigma 1): 37.11% | Inhibition 1 ([1]; Receptor Sigma 2): 97.53% | Inhibition 2 ([1]; Receptor Sigma 2): 96.04% | Inhibition 3 ([1]; Receptor Sigma 2): 97.25% | Inhibition 4 ([1]; Receptor Sigma 2): 98.03% | Mean % ([1]; Receptor Sigma 2): 97.21% | Inhibition 1 [2]: 13.62% | Inhibition 2 [2]: -19.4% | Inhibition 3 [2]: -17.29% | Inhibition 4 [2]: -17.42% | Mean % ([2]; mean of Inhibition 1-4): -10.12% | Inhibition 1 [3]: 6.22% | Inhibition 2 [3]: 2.13% | Inhibition 3 [3]: 5.78% | Inhibition 4 [3]: 14.39% | Mean % ([3]; mean of Inhibition 1-4): 7.13% | Inhibition 1 [4]: 34.93% | Inhibition 2 [4]: 33.32% | Inhibition 3 [4]: 29.49% | Inhibition 4 [4]: 24.93% | Mean % ([4]; mean of Inhibition 1-4): 30.67% | Inhibition 1 [5]: 90.4% | Inhibition 2 [5]: 85.14% | Inhibition 3 [5]: 80.37% | Inhibition 4 [5]: 89.25% | Mean % ([5]; mean of Inhibition 1-4): 86.29% | Inhibition 1 [6]: 11.9% | Inhibition 2 [6]: -4.63% | Inhibition 3 [6]: 2.76% | Inhibition 4 [6]: -1.81% | Mean % ([6]; mean of Inhibition 1-4): 2.06% | Inhibition 1 [7]: 58.8% | Inhibition 2 [7]: 42.24% | Inhibition 3 [7]: 30.2% | Inhibition 4 [7]: 36.41% | Mean % ([7]; mean of Inhibition 1-4): 41.91% | Inhibition 1 [8]: -17.91% | Inhibition 2 [8]: -11.2% | Inhibition 3 [8]: -40.41% | Inhibition 4 [8]: -19.03% | Mean % ([8]; mean of Inhibition 1-4): -22.14% | Inhibition 1 [9]: 18.86% | Inhibition 2 [9]: -8.82% | Inhibition 3 [9]: 17.73% | Inhibition 4 [9]: 11.41% | Mean % ([9]; mean of Inhibition 1-4): 9.8% | Inhibition 4 [10]: 12.81% and 23.25%
